Results on one molecule are retold here after patent US10697020B2, “MicroRNA-129 as a biomarker for colorectal cancer” (THE RESEARCH FOUNDATION FOR THE STATE UNIVERSITY OF NEW YORK, priority 2013, dated 2020).

Assay [1] relates to HCT116 cells. The assay can be described thus: Colorectal cancer xenografts (HCT116) in NOD/SCID mice, tumor volume. The assay is classed as in vivo. Conditions: day 24. How it is done: When solid and palpable tumors with an average volume of 100-150 mm^3 were formed (at day 14), mice were randomly separated into four groups such that each group was treated either with negative control miRNA, miR-129 alone, 5-FU alone or miR-129 and 5-FU together. The miRNAs were complexed with siPORTamine and injected intratumorally while 5-FU (50 μg g^−1) was injected systemically via the tail vein. All injections were provided in 3-day intervals for a total of three times before the tumors were collected at day 24. […] Importantly, despite the overexpression, the expression levels of miR-129 copy number remained within the physiological range (less than 20 copies/cell based on cycle threshold value at 30, which is equal to the expression of miR-129 in normal colon mucosa). Moreover, the control tumor xenografts had no miR-129 expression (cycle threshold value at 35).
Ten-twelve week old NOD/SCID mice (Jackson Laboratories, Bar Harbor, […]., USA) were used for tumor implantation. All animal procedures were approved by the Stony Brook University Institutional Animal Care and Use Committee (IACUC). The tumor implantation and miRNA injection protocol was modified from Trang et al. (see Trang P., et al., Oncogene. (2010) 29(11):1580-7). The mice were anesthetized by isoflurane inhalation. HCT116 cells were subcutaneously injected into the lower back areas of the mice using 2.5×10^6 cells in 100 μl McCoy's 5A with 50% matrigel (BD Biosciences). The tumor size was measured using a caliper and tumor volume was calculated using the formula V=length×width^2/2. When tumor volumes reach 100-150 mm^3 at day 14 post-injection, the mice were randomly assigned into four groups. For the first two groups, 10 μM negative miRNA or miR-129 precursor (Ambion) complexed with 1.6 μl siPORTAmine (Ambion) in 50 μl McCoy's 5A was injected into the tumors every three days. For the third group, 5-FU (Sigma-Aldrich) was injected at 50 μg/g via the tail vein every three days. Finally, for the last group, both miR-129 precursor and 5-FU were injected as described above. The mice were euthanized on day 24 post-injection by CO2 inhalation, and tumors were dissected out for RNA isolation.

Assay [2] deals with HCT116 cells. The assay can be described thus: 5-FU treatment and cytotoxicity assay (WST-1). It is filed as cell-based. Particulars: Homo sapiens, HCT-116, 72 h, read-out: IC50 (50% growth inhibition, WST-1). How it is done: Twenty-four hours after transfection, HCT116 cells were plated in 96-well plates at 2×10^3 cells per well in triplicates in 100 μl of medium. After 24 hours, fresh medium containing 5-FU alone (ranged from 1 to 4 μM) or miR-129 precursor alone (ranged from 10 nM to 40 nM) or 5-FU and miR-129 together (at a constant ratio 1:10, with increasing concentrations of both compounds) were added, and cells were cultured for an additional 72 hours. Cell viability was measured using the WST-1 assay, and concentration-dependent curves were generated based on the cell viability. The combination index was calculated by CompuSyn software. See, Chou T C et al. (2007).
For orientation: Tetrazolium dyes change colour on reduction, which living cells bring about.

As a reminder, the IC50 is the concentration that inhibits the measured activity by half.

Like-named read-outs stand apart in the source and are kept apart here.

Consider `O=c1[nH]cc(F)c(=O)[nH]1` [5-FU, 5-fluoro-1H-pyrimidine-2,4-dione, reference compound], for which, in the assay on HCT116 cells [1] (HCT116 xenograft, compared with negative miRNA or single agents), the “inhibition of tumor growth (in words)” value is recorded as “strong inhibitory effect”. For the same molecule, the “average tumor volume, % of the control group” value in the assay with HCT116 cells [1] (treated days 14, 17, 20, miRNA intratumoral with siPORTamine, 5-FU 50 μg/g tail vein, control negative miRNA) stood at 48.4%. For the same molecule, the IC50 with HCT116 cells [2] (5-FU alone) amounted to 2.3 µM; with HCT116 cells [2] (5-FU when combined with miR-129 (fixed ratio 1:10)), 0.6 µM.
